Results published in publication PMC7026418, “The kinase polypharmacology landscape of clinical PARP inhibitors” (Scientific Reports, 2020).
Where two headings read alike, the source gives them in different places.

Experiments:
Assay in all cases: biochemical
Design in all cases: DiscoveRx KINOMEscan active site-directed competition binding; percent of control kinase bound to immobilised ligand
EPHB4 = target: T1, EPHB4 (Homo sapiens, UniProt P54760)
T1 sequence (P54760 1-987): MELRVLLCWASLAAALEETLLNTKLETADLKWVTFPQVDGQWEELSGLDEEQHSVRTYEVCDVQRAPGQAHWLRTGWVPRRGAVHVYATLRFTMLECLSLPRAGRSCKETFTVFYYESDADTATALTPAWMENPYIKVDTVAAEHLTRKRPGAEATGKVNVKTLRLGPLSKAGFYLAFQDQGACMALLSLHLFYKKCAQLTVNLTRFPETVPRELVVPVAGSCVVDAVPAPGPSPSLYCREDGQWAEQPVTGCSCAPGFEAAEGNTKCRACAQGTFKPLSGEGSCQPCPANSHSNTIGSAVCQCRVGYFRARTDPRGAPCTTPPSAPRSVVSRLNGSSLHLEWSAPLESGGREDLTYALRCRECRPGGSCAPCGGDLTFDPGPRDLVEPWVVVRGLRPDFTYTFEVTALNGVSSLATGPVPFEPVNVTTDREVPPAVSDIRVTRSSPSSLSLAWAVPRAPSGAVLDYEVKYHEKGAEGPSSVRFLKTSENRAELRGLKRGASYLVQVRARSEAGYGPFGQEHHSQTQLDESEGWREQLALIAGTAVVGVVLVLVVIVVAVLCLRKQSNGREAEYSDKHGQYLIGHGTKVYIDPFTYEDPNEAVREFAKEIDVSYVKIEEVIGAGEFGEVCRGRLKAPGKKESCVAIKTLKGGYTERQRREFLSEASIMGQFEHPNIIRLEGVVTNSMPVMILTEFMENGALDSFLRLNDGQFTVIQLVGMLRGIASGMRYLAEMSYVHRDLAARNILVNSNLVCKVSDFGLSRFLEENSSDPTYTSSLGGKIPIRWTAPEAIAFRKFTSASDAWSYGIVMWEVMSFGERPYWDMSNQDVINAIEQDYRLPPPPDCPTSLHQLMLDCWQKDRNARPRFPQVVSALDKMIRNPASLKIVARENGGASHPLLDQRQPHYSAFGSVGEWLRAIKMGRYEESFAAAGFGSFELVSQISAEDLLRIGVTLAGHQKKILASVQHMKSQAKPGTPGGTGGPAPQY

GSK3B = GSK3B (Homo sapiens, UniProt P49841)
PDGFRB = PDGFRB (Homo sapiens, UniProt P09619)
CAMKK2 = CAMKK2 (Homo sapiens, UniProt Q96RR4)
RIPK5 = target: T2, RIPK5 (Homo sapiens, UniProt Q6XUX3)
T2 construct: gene DSTYK
T2 sequence (Q6XUX3 1-929): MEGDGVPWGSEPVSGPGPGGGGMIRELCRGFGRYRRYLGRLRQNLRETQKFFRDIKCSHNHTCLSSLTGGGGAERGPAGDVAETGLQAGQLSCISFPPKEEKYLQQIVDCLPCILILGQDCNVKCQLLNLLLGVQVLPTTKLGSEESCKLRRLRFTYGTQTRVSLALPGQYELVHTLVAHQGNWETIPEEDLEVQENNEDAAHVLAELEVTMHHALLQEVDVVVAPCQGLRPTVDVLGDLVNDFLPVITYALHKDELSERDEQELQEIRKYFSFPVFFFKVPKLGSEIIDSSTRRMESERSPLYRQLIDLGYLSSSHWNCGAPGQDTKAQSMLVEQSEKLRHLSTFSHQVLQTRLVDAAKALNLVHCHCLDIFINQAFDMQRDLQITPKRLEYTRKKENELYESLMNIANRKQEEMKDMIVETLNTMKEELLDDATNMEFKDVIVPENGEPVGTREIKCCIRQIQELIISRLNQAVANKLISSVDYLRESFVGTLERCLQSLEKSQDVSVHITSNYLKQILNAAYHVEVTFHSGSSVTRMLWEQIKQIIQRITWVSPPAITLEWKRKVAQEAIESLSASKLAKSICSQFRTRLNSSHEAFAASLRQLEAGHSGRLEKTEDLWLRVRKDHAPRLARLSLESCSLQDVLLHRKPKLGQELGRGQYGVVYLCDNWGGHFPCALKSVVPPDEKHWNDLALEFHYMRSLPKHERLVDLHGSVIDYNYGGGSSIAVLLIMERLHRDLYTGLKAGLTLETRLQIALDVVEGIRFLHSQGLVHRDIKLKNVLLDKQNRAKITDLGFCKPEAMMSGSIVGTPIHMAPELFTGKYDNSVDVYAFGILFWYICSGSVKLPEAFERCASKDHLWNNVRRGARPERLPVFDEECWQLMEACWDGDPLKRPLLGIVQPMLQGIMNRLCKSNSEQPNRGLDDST

VPS34 = target: T3, VPS34 (Homo sapiens, UniProt Q8NEB9)
T3 construct: gene PIK3C3

[1] = read-out: Niraparib (MK-4827) / %Ctrl @ 10000nM
[2] = read-out: Olaparib / %Ctrl @ 10000nM
[3] = read-out: Rucaparib / %Ctrl @ 10000nM, binding competition, % of control
[4] = read-out: Talazoparib (BMN 673) / %Ctrl @ 10000nM

Sequence of PDGFRB (P09619 whole entry): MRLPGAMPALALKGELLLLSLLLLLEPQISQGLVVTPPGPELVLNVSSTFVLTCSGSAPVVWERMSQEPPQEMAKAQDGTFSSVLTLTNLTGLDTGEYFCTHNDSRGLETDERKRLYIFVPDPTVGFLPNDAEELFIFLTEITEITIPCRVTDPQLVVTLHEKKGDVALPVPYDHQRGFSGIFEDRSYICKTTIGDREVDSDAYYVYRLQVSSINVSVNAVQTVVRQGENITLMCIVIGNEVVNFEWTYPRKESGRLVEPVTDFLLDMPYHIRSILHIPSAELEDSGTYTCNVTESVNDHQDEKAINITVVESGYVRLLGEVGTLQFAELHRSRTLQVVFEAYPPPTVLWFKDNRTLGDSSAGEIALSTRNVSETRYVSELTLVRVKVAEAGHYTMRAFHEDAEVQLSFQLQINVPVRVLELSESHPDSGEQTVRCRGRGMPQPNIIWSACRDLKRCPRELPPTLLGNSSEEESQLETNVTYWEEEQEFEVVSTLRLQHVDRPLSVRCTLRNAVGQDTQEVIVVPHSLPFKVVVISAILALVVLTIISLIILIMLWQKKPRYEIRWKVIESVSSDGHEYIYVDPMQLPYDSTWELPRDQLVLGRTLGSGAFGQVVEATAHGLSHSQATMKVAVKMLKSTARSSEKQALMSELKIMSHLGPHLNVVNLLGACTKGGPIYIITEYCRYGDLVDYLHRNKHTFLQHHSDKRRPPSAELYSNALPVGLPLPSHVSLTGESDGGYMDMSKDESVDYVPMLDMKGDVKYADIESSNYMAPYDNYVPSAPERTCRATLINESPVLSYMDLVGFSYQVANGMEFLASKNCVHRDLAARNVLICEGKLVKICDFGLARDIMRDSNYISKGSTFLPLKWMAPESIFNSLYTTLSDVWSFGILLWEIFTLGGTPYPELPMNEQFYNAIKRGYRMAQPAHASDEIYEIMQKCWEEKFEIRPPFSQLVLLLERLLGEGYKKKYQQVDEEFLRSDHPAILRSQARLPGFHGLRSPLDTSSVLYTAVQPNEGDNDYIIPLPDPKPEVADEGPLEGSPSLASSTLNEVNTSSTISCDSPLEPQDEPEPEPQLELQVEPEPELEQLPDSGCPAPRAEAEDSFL
T3 sequence (Q8NEB9 whole entry): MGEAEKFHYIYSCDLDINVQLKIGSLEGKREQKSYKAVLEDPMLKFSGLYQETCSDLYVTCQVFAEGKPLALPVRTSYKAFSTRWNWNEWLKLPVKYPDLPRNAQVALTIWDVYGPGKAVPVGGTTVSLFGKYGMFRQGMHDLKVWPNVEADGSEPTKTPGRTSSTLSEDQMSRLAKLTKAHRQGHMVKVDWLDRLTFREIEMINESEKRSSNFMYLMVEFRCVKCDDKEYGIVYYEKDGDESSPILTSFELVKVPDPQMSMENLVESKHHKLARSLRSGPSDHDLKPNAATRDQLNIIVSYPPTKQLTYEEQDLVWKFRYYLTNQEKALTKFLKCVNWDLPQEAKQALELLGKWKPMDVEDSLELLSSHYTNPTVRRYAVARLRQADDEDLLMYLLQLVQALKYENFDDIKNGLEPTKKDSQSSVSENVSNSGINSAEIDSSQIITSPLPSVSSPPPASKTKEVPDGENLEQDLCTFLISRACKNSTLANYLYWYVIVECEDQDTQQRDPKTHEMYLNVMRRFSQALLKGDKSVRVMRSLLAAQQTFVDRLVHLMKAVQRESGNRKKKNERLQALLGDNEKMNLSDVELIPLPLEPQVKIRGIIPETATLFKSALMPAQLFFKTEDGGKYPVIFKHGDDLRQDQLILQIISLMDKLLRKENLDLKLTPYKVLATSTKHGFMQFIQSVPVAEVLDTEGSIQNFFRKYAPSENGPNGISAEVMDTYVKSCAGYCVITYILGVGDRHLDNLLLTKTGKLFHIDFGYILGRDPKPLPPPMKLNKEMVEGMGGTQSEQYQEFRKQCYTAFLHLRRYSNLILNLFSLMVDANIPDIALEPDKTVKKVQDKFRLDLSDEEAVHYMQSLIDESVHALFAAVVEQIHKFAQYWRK
Sequence of CAMKK2 (Q96RR4 whole entry): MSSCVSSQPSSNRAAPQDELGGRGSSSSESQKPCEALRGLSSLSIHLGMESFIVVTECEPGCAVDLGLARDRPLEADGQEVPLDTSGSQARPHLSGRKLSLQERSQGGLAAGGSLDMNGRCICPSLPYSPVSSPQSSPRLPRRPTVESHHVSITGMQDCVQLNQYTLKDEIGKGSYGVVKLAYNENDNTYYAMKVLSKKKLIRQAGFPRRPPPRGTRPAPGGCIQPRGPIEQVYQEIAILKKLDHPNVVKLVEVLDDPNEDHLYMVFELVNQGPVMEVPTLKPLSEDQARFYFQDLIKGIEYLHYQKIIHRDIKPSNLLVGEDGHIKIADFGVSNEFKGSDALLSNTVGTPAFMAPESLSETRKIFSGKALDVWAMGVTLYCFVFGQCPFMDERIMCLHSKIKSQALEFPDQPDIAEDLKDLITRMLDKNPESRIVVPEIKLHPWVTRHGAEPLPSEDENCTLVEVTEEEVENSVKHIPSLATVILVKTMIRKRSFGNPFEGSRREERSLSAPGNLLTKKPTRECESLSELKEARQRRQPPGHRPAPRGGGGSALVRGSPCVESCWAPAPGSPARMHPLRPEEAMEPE
Sequence of GSK3B (P49841 whole entry): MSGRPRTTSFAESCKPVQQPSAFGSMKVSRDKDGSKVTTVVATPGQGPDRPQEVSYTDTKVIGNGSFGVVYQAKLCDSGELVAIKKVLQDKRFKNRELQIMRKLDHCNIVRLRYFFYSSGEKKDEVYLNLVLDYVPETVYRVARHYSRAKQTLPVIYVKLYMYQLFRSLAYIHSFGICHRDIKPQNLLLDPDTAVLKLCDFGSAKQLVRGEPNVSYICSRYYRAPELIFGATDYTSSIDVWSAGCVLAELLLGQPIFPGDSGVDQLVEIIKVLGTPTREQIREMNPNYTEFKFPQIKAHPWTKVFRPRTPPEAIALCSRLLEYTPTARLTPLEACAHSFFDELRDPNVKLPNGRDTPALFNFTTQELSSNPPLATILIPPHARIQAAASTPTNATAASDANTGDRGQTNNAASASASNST

## NC(=O)c1cccc2cn(-c3ccc([C@@H]4CCCNC4)cc3)nc12 [Niraparib]
EPHB4; [1]
  percent of control binding at 10 µM: 91%
GSK3B; [1]
  percent of control binding at 10 µM: 88%
PDGFRB; [1]
  percent of control binding at 10 µM: 90%
CAMKK2; [1]
  percent of control binding at 10 µM: 81%
RIPK5; [1]
  percent of control binding at 10 µM: 89%
VPS34; [1]
  percent of control binding at 10 µM: 14%

## O=C(c1cc(Cc2n[nH]c(=O)c3ccccc23)ccc1F)N1CCN(C(=O)C2CC2)CC1 [Olaparib]
EPHB4; [2]
  percent of control binding at 10 µM: 90%
GSK3B; [2]
  percent of control binding at 10 µM: 98%
PDGFRB; [2]
  percent of control binding at 10 µM: 96%
CAMKK2; [2]
  percent of control binding at 10 µM: 99%
RIPK5; [2]
  percent of control binding at 10 µM: 100%
VPS34; [2]
  percent of control binding at 10 µM: 90%

## CNCc1ccc(-c2[nH]c3cc(F)cc4c3c2CCNC4=O)cc1 [Rucaparib]
EPHB4; [3]
  percent of control binding at 10 µM: 95%
GSK3B; [3]
  percent of control binding at 10 µM: 89%
PDGFRB; [3]
  percent of control binding at 10 µM: 98%
CAMKK2; [3]
  percent of control binding at 10 µM: 70%
RIPK5; [3]
  percent of control binding at 10 µM: 96%
VPS34; [3]
  percent of control binding at 10 µM: 80%

## Cn1ncnc1[C@H]1c2n[nH]c(=O)c3cc(F)cc(c23)N[C@@H]1c1ccc(F)cc1 [Talazoparib]
EPHB4; [4]
  percent of control binding at 10 µM: 100%
GSK3B; [4]
  percent of control binding at 10 µM: 100%
PDGFRB; [4]
  percent of control binding at 10 µM: 99%
CAMKK2; [4]
  percent of control binding at 10 µM: 97%
RIPK5; [4]
  percent of control binding at 10 µM: 100%
VPS34; [4]
  percent of control binding at 10 µM: 100%
